Results from patent US4375513A, “Biologically pure culture of Actinoplanes missouriensis” (Eli Lilly and Company, priority 1981, dated 1983).
Structures can show the parent of a compound that is named as a salt.

Tests used:
[1] = test system: Actinoplanes Strain ATCC 31683; assay: antibiotic sensitivity of Actinoplanes strain ATCC 31683; format: cell-based, Actinoplanes missouriensis
Method: (§1) The methods used for the taxonomic studies of strains ATCC 31680, ATCC 31682, and ATCC 31683 are well known to those skilled in the art and in large part are methods recommended for the International Streptomyces Project (ISP), described by Shirling and Gottlieb, 1966, Intern. J. of Systematic Bacteriol. 16(3):313-340. Enzyme assays were carried out according to the methods of Blazevic and Ederer, 1975, Principles of Biochemical Tests in Diagnostic Microbiology, John Wiley and Sons. Inc., New York, and color names, abbreviations, and numbers were assigned using the ISCC-NBS method of Kelly and Judd, 1976, The ISCC-NBS Centroid Color Charts Standard Sample No. 2106, U.S. Dept. of Commerce, National Bureau of Standards, Washington D.C. Lysozyme resistance and the decomposition of casein, esculin, hypoxanthine, tyrosine, and xanthine were measured using the procedure of Berg, 1973, Appl. Microbiol. 25:665-681. Carbon utilization studies were also completed and are stored as follows: […]

[2] = test system: Actinoplanes Strain ATCC 31680; assay: antibiotic sensitivity of Actinoplanes strain ATCC 31680; format: cell-based, Actinoplanes missouriensis
Method: as §1

[3] = test system: Actinoplanes Strain ATCC 31682; assay: antibiotic sensitivity of Actinoplanes strain ATCC 31682; format: cell-based, Actinoplanes missouriensis
Method: as §1

[4] = bioautography of aglycone formation during hydrolysis; format: cell-based; conditions: during hydrolysis of A-4696 complex and individual factors
Source text: An additional factor, designated as E1, can also be isolated from the antibiotic A-4696 complex and may represent a degradation product. The chemical, physical, and biological properties of the factors indicate that they are new antibiotics and, except possibly for factor E1, that they are composed of the same peptide core (aglycone) and amino sugar, and varying amounts of glucose, mannose, and rhamnose. […] It is possible that the site of antimicrobial activity of the A-4696 complex and individual factors resides in the peptide pseudo-aglycone, with the factors being substantially differentiated by differences in their neutral sugar composition. The attached sugars may function chiefly to modulate solubility and other important pharmacodynamic parameters.

| SMILES | Antibiotic sensitivity ([1]; 30 μg.) | Antibiotic sensitivity ([2]; 30 μg.) | Antibiotic sensitivity ([3]; 30 μg.) | other results |
| --- | --- | --- | --- | --- |
| CC(=O)OCC1=C(C(=O)O)N2C(=O)[C@@H](NC(=O)Cc3cccs3)[C@H]2SC1 [Cephalothin (sodium)] | Sensitive | Sensitive | Sensitive | – |
| O=C(N[C@H](CO)[C@H](O)c1ccc([N+](=O)[O-])cc1)C(Cl)Cl [Chloromycetin] | Sensitive | Sensitive | Sensitive | – |
| CCC(=O)O[C@H]1[C@H](O[C@@H]2[C@@H](C)[C@H](O[C@H]3C[C@@](C)(OC)[C@@H](O)[C@H](C)O3)[C@@H](C)C(=O)O[C@H](CC)[C@@](C)(O)[C@H](O)[C@@H](C)C(=O)[C@H](C)C[C@@]2(C)O)O[C@H](C)C[C@@H]1N(C)C [Erythromycin (estolate)] | – | – | – | Antibiotic sensitivity ([1]; 15 μg.): Sensitive; Antibiotic sensitivity ([2]; 15 μg.): Sensitive; Antibiotic sensitivity ([3]; 15 μg.): Sensitive |
| CO[C@@H]1[C@@H](OC(N)=O)[C@@H](O)[C@H](Oc2ccc3c(O)c(NC(=O)c4ccc(O)c(CC=C(C)C)c4)c(=O)oc3c2C)OC1(C)C [Novobiocin] | Sensitive | Sensitive | Sensitive | – |
| CC1(C)S[C@@H]2[C@H](NC(=O)Cc3ccccc3)C(=O)N2[C@H]1C(=O)O [Penicillin (G)] | – | – | – | Antibiotic sensitivity ([1]; 10 units): Sensitive; Antibiotic sensitivity ([2]; 10 units): Sensitive; Antibiotic sensitivity ([3]; 10 units): Sensitive |
| CO[C@H]1/C=C/O[C@@]2(C)Oc3c(C)c(O)c4c(O)c(c(/C=N/N5CCN(C)CC5)c(O)c4c3C2=O)NC(=O)/C(C)=C\C=C\[C@H](C)[C@H](O)[C@@H](C)[C@@H](O)[C@@H](C)[C@H](OC(C)=O)[C@@H]1C [Rifampin] | – | – | – | Antibiotic sensitivity ([1]; 5 μg.): Sensitive; Antibiotic sensitivity ([2]; 5 μg.): Sensitive; Antibiotic sensitivity ([3]; 5 μg.): Sensitive |
| [H]/N=C(/N)N[C@H]1[C@H](O)[C@@H](O)[C@H](O[C@@H]2O[C@@H](C)[C@](O)(C=O)[C@H]2O[C@@H]2O[C@@H](CO)[C@H](O)[C@@H](O)[C@@H]2NC)[C@@H](N/C(N)=N\[H])[C@@H]1O [Streptomycin] | – | – | – | Antibiotic sensitivity ([1]; 10 μg.): Sensitive; Antibiotic sensitivity ([2]; 10 μg.): Sensitive; Antibiotic sensitivity ([3]; 10 μg.): Sensitive |
| CN(C)C1C(=O)C(C(N)=O)=C(O)C2(O)C(=O)C3=C(O)c4c(O)cccc4C(C)(O)C3CC12 (stereo not shown) [Tetracycline] | Sensitive | Sensitive | Sensitive | – |
| CN[C@H](CC(C)C)C(=O)N[C@H]1C(=O)N[C@@H](CC(N)=O)C(=O)N[C@H]2C(=O)N[C@H]3C(=O)N[C@H](C(=O)N[C@H](C(=O)O)c4cc(O)cc(O)c4-c4cc3ccc4O)[C@H](O)c3ccc(c(Cl)c3)Oc3cc2cc(c3O[C@@H]2O[C@H](CO)[C@@H](O)[C@H](O)[C@H]2O[C@H]2C[C@](C)(N)[C@H](O)[C@H](C)O2)Oc2ccc(cc2Cl)[C@H]1O [Vancomycin HCl] | Sensitive | Sensitive | Sensitive | – |
| COC(=O)C1NC(=O)C2NC(=O)C(NC(=O)C3NC(=O)C4NC(=O)C(Cc5ccc(cc5)Oc5cc3cc(c5O)Oc3ccc(cc3Cl)C2OC2CC(N)C(O)C(C)O2)NC(=O)C(N)c2ccc(O)c(c2)Oc2cc4cc(O)c2C)c2ccc(O)c(c2)-c2c(O)cc(O)cc21 (stereo not shown) [pseudo-aglycone] | – | – | – | antimicrobial activity (bioautography) [4]: antimicrobially active |
